Laboratory results reported in patent US10123954B1, “Methods for treating skin” (AVON PRODUCTS, INC., priority 2015, dated 2018).
Entries after “also recorded” stand apart in the source; their conditions may differ.

How the values were obtained:
Type in all cases: cell-based
[1] = test system: Human 3D MelanoDerm MEL-B skin tissues; test: Melanin in 3D skin models (SOLVABLE melanin assay); conditions: 14 consecutive days, n=6, change from control, niacinamide 0.1%; for B (% change in pigmentation): active B of Table 8 alone, hexylresorcinol 0.05%; for A (% change in pigmentation): active A of Table 8 alone, TDPA 1%
Description: A series of experiments was conducted to assess the effects of treatment regimens of active ingredients shown in Table 8 on the production of melanin in 3D models. Four different treatment regimens were assessed: (1) active ingredient A, alone; (2) active ingredient B, alone; (3) the combination of active ingredients A+B; and (4) active ingredient A, alone, followed by active ingredient B, alone, as detailed in Table 8. For treatment regimens (1), (2), and (3), the active ingredients were applied to cells for 14 consecutive days. For treatment regimen (4) (sequential regimen), the cells were treated with active ingredient A for 7 days, followed by treatment with the other active ingredient B for 7 days.
Human 3D MelanoDerm MEL-B skin tissues (available from MatTek, Mass.) were cultured following the manufacture instructions. Different skin tissue models were assigned to one of treatment regimens (1)-(4) as described above, with six models allocated to each treatment regimen (i.e., n=6). All active ingredients were prepared as emulsions and applied directly to the skin models. Following treatment, skin tissue models were collected and the amount of melanin produced from the cells was measured using a SOLVABLE melanin assay. Treated skin tissues were prepared using a phosphate buffer saline and sodium bicarbonate. Each skin tissue is added to 500 μl of 0.5 M SOLVABLE solubilizer (available from Packard BioScience) and incubated at 95° overnight. The absorbance of each skin tissue sample is measured at 490 nm and the absorbance is compared to a standard curve to indicate the amount of melanin produced and pigmentation in each skin tissue model.
The results for treatments measuring the melanin content produced are shown in Table 9 as a percentage change from control (i.e., untreated samples or samples treated with the same emulsion but in absence of active ingredients).

[2] = test system: Human dermal fibroblast cells; test: Pro-collagen I secretion by human dermal fibroblasts (HTRF human pro-collagen I kit); conditions: 0.0001% phytol or 1 μM retinol alone for 16 days, re-treated every other day
Description: Human dermal fibroblast cells were grown in a 6-well plate in DMEM media (available from Corning, N.Y.) supplemented with 10% Fetal Bovine Serum (FBS) and L-glutamine (1.5×10^5 cells/plate) overnight. After reaching about 75% confluence, cells were transferred into DMEM media without FBS and incubated for 4-6 hours. Next, the cells were treated with either 0.0001% phytol or 1 μM retinol. Treatment with either phytol alone, or retinol alone was performed in DMEM media without FBS for 16 days. For sequential treatments, the cells were treated with 0.0001% phytol for 6 days followed by 1 μM retinol for 10 days, or with 1 μM retinol for 6 days, followed by 0.0001% phytol for 10 days. Every other day, media were collected and cells were re-treated with phytol or retinol in the same fashion. After treatment, the amount of collagen secreted into the culture media was determined using the HTRF human pro-collagen I kit (available from CISBIO, Inc).

[3] = test system: human dermal fibroblast (HDF) cells; test: Hyaluronic Acid (HA) assessment in human dermal fibroblasts; conditions: 10 consecutive days, n=6, change over emulsion control, retinol 1 μM; for B alone (% change in HA): active B of Table 3 alone, niacinamide 0.1%, Coleus forskohlii 0.001%, Tiliacora triandra 0.1%, Tetrapeptide 4 0.10%, phytol 0.010%; for A alone (% change in HA): active A of Table 3 alone, Tiliacora triandra 0.10%, glycolic acid 1 mM, KTFK 0.001%, sodium glycolate 10 μM
Description: A series of experiments was conducted to assess the effects of the treatment regimens of active ingredients on the production of hyaluronic acid (HA) in human dermal fibroblast (HDF) cells. The following five treatment regimens were assessed: (1) active ingredient A, alone; (2) active ingredient B, alone; (3) the combination of active ingredients A+B; (4) active ingredient A, alone, followed by active ingredient B, alone (“A/B”); and (5) active ingredient B, alone, followed by active ingredient A, alone (“B/A”). For treatment regimens (1), (2), and (3), the active ingredients were administered to cells for 10 consecutive days. For treatment regimens (4) and (5) (sequential regimens), the cells were treated with active ingredient A or active ingredient B for 5 days, followed by active ingredient B or active ingredient A for 5 days, respectively.
Human dermal fibroblast cells were grown in 96-well plates in DMEM media (available from CORNING, N.Y.) supplemented with 10% FBS and L-glutamine. After reaching about 75% confluence, cells were transferred into DMEM media without FBS, and incubated for 4-6 hours. Different wells were assigned to one of treatment regimens (1)-(5) as described above, with six wells allocated to each treatment regimen (i.e., n=6). All active ingredients were prepared as emulsions and applied directly to the HDF cells. The specific active ingredients used in each of the five treatment regimens are provided below in Table 3. Following treatment, cells were collected and the amount of hyaluronic acid (HA) secreted from the cells was measured using a commercially available HA assay (available from CORGENIX Inc., CO).
The results are summarized below in Table 4 and plotted in FIGS. 13-17 as a percentage change over control (i.e. cells treated with the same emulsion but in absence of active ingredients).

[4] = test system: human dermal fibroblast (HDF) cells; test: Pro-collagen type I assessment in human dermal fibroblasts (ELISA); conditions: 10 consecutive days, change from emulsion control, retinol 1 μM; for A alone (% change in pro-collagen): active A of Table 6 alone, phytol 0.0001%
Description: A series of experiments was conducted to assess the effects of the treatment regimens of active ingredients shown in Table 6 on the production of pro-collagen type I in human dermal fibroblast (HDF) cells. Five different treatment regimens were assessed: (1) active ingredient A, alone; […] (3) the combination of active ingredients A+B; […] For treatment regimens (1), (2), and (3), the active ingredients were applied to cells for 10 consecutive days. […] After reaching about 75% confluence, cells were transferred into DMEM media without FBS, and incubated for 4-6 hours. Different wells were assigned to one of treatment regimens (1)-(5) as described above, with six wells allocated to each treatment regimen. All active ingredients were prepared as emulsions and applied directly to the HDF cells. The specific active ingredients used in each of the five treatment regimens are provided below in Table 6. Following treatment, measurements on the amount of pro-collagen produced from the cells were performed using a commercially available pro-collagen type I enzyme-linked immuno sorbent assay (ELISA) kit (available from TAKARA Inc., KR). [table]

[5] = test system: human dermal fibroblast (HDF) cells; test: Hyaluronic acid in human dermal fibroblasts, pulsed versus daily treatment; conditions: for % Change in HA over control (daily): 12 consecutive days; for % Change in HA over control (daily) / % Change in HA over control (pulsed): Tiliacora triandra 0.05%, niacinamide 0.10%, glycolic acid 1 mM, retinol 1 μM, phytol 0.01%; for % Change in HA over control (pulsed): 2 days active / 2 days media without active, repeated over 12 days; for HA production, pulsed treatment compared with daily treatment: pulsed uses half as much active over 12 days
Description: After reaching about 75% confluence, cells were transferred into DMEM media without FBS, and incubated for 4-6 hours. Different wells were assigned to one of treatment regimens (1)-(2) as described above, with six wells allocated to each treatment regimen. All active ingredients were prepared as emulsions and applied directly to the HDF cells. […] Following treatment, cells were collected and the amount of hyaluronic acid (HA) secreted from the cells was measured using a commercially available HA assay (available from […] Inc., CO).

[6] = test system: Human 3D skin EFT400FT tissues; test: HA in full thickness 3D skin models; conditions: 4 consecutive days, n=12; 4% glycolic acid topically or 0.2% Tiliacora triandra via growth media
Description: A series of experiments was conducted to assess the effects of the treatment regimens of glycolic acid and Tiliacora triandra on the production of hyaluronic acid (HA) on full thickness 3D skin cultures. Five different treatment regimens were assessed: (1) 4% glycolic acid, alone; (2) 0.2% Tiliacora triandra, alone; (3) the combination of 4% glycolic acid+0.2% Tiliacora triandra; (4) 4% glycolic acid, alone, followed by 0.2% Tiliacora triandra, alone; and (5) 0.2% Tiliacora triandra, alone, followed by 4% glycolic acid, alone. Glycolic acid was administered topically to the 3D tissue and Tiliacora triandra was administered via the growth media. For treatment regimens (1), (2), and (3), the active ingredient or ingredients were applied to cells for 4 consecutive days. For treatment regimens (4) and (5) (sequential regimens), the cells were treated with glycolic acid or Tiliacora triandra for 2 days, followed by Tiliacora triandra or glycolic acid for 2 days, respectively.
Human 3D skin EFT400FT tissues (MatTek, Mass.) were cultured following the manufacturer's instructions. Each treatment regimen was applied to twelve 3D skin samples. […] Following treatment, cells were collected and the amount of hyaluronic acid secreted from the cells was measured using a commercially available HA assay (available from CORGENIX Inc., CO). […]

CCCCCCc1ccc(O)cc1O [Hexylresorcinol]
B (% change in pigmentation) [1]: 140.4%

C/C(=C\CO)CCC[C@H](C)CCC[C@H](C)CCCC(C)C [Phytol]
pro-collagen production over treatment time [2]: declines for both phytol- and retinol-treated cells after day 13 despite continuing treatment; also recorded: plateau in effectiveness over time | B alone (% change in HA) [3]: 67.7% | A alone (% change in pro-collagen) [4]: 19.1% | % Change in HA over control (daily) [5]: −4.0% | % Change in HA over control (pulsed) [5]: 25.1% | HA production, pulsed treatment compared with daily treatment [5]: significantly more production of hyaluronic acid than in daily treatment regimens

O=C(O)CO [Glycolic Acid]
A alone (% change in HA) [3]: 20.8% | percentage change in HA over control, active alone [6]: 42.6% | % Change in HA over control (daily) [5]: 9.1% | % Change in HA over control (pulsed) [5]: 5.1% | HA production, pulsed treatment compared with daily treatment [5]: only slightly less effective than daily treatment

O=C(O)CCSCCC(=O)O [TDPA, thiodipropionic acid]
A (% change in pigmentation) [1]: −19.1%

O=C([O-])CO.[Na+] [Sodium Glycolate]
A alone (% change in HA) [3]: −2.54%

NC(=O)c1cccnc1 [Niacinamide]
B alone (% change in HA) [3]: −51.6% | A (% change in pigmentation) [1]: −18.9% | B (% change in pigmentation) [1]: −18.9% | % Change in HA over control (daily) [5]: −36.5% | % Change in HA over control (pulsed) [5]: 1.3%

CC1=C(/C=C/C(C)=C/C=C/C(C)=C/CO)C(C)(C)CCC1 [Retinol]
pro-collagen production over treatment time [2]: declines for both phytol- and retinol-treated cells after day 13 despite continuing treatment; also recorded: plateau in effectiveness over time | A alone (% change in HA) [3]: 11.7% | B alone (% change in HA) [3]: 11.7% | A alone (% change in pro-collagen) [4]: 13.6% | B alone (% change in pro-collagen) ([4]; active B of Table 6 alone, Coleus forskohlii 0.001%): 3.9% | % Change in HA over control (daily) [5]: 17.2% | % Change in HA over control (pulsed) [5]: 32.0% | HA production, pulsed treatment compared with daily treatment [5]: significantly more production of hyaluronic acid than in daily treatment regimens

Tetrapeptide-4 [Tetrapeptide 4]
B alone (% change in HA) [3]: 15.1%

Lys-Thr-Phe-Lys (KTFK; printed: Lys-Thr-Phe-Lys)
A alone (% change in HA) [3]: 23.7%
